Results on ten compounds are retold here after PubChem BioAssay (NCI).

Some test systems named below: A498 renal; SF-268 CNS; HCT-15 colon; SR leukemia; MOLT-4 leukemia; HL-60(TB) leukemia; BT-549 breast; MDA-MB-435; SK-MEL-28 melanoma; HOP-92 NSCLC.
Assay in all cases: DTP human tumour cell line panel, 48 h

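All cell lines were grown in 96-well plates and treated with compound for 48 hours. Here, GI50 denotes the concentration required for 50% inhibition of growth. TGI: total growth inhibition.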

Broadly, the GI50 is the concentration that inhibits growth by half. Broadly, the TGI is the concentration at which net growth stops. Lower therefore signals greater sensitivity of the cells. On to `Cc1cc(C)c(Cn2cnc3c(Cl)ncnc32)c(C)c1CCl`, for which the GI50 is over 100 µM in the experiment on A498 renal; 79.7 µM in the experiment on SF-268 CNS; 0.343 µM in the experiment with HCT-15 colon; 12.7 µM in the experiment with SR leukemia; 23.3 µM in the experiment with MOLT-4 leukemia; 27.2 µM in the experiment on HL-60(TB) leukemia. The GI50 in the experiment with BT-549 breast and in the experiment on MDA-MB-435 was over 100 µM in each case. For the same compound, the total growth inhibition concentration (TGI) was over 100 µM in the experiment on A498 renal; over 100 µM in the experiment with SF-268 CNS; 18.8 µM in the experiment with HCT-15 colon; 47.4 µM with SR leukemia; 63.4 µM in the experiment on MOLT-4 leukemia; 59.9 µM in the experiment on HL-60(TB) leukemia. The TGI with BT-549 breast and in the experiment with MDA-MB-435 was over 100 µM throughout.

On to `O=Cc1ccc(-c2ccc(-c3nc4ccccc4o3)cc2)o1`, for which the GI50 in the experiment on A498 renal is 21.2 µM; with SK-MEL-28 melanoma it was 64.5 µM; with SF-268 CNS it was 29.6 µM; in the experiment with HCT-15 colon, 19.7 µM; with MOLT-4 leukemia, 52 µM; with HL-60(TB) leukemia it was over 100 µM. In addition, the GI50 was 35.4 µM with BT-549 breast and 33.1 µM in the experiment on MDA-MB-435. Moreover, the TGI is over 100 µM in the experiment with A498 renal; over 100 µM in the experiment with SK-MEL-28 melanoma; over 100 µM with SF-268 CNS; 53.4 µM in the experiment with HCT-15 colon; over 100 µM in the experiment with MOLT-4 leukemia; over 100 µM in the experiment on HL-60(TB) leukemia. The TGI in the experiment on BT-549 breast and in the experiment on MDA-MB-435 was over 100 µM throughout.

Take `CC/C(CC(=O)CCC(=O)Nc1ccccc1[N+](=O)[O-])=N/NC(=O)C[n+]1ccccc1`: the concentration for total growth inhibition (TGI) with A498 renal, in the experiment with SK-MEL-28 melanoma, in the experiment on SF-268 CNS, in the experiment with HCT-15 colon, in the experiment with HOP-92 NSCLC and with SR leukemia was over 100 µM throughout. Moreover, the total growth inhibition concentration (TGI) in the experiment with MOLT-4 leukemia and in the experiment on HL-60(TB) leukemia was over 100 µM throughout.

As for `C=C1CCC2C(C)(COC(=O)CC)C(OC(=O)CC)CCC2(C)C1C/C=C1/C(=O)OCC1OC(=O)CC` (stereo not given), the GI50 with A498 renal is 4.05 µM; in the experiment with SK-MEL-28 melanoma, 1.95 µM; in the experiment on SF-268 CNS it was 1.91 µM; in the experiment with HCT-15 colon, 1.96 µM; with HOP-92 NSCLC it was 3.03 µM; in the experiment on SR leukemia, 1.58 µM. In addition, the results for the GI50 with MOLT-4 leukemia, with HL-60(TB) leukemia and with MDA-MB-435 were 2.62 µM, 1.82 µM and 1.68 µM, respectively. Also, the TGI in the experiment on A498 renal was determined as 13.3 µM; in the experiment with SK-MEL-28 melanoma, 4.1 µM; in the experiment on SF-268 CNS, 3.39 µM; with HCT-15 colon, 6 µM; with HOP-92 NSCLC it was 7.15 µM; in the experiment with SR leukemia it was 5.28 µM. Moreover, the concentration for total growth inhibition (TGI) with MOLT-4 leukemia came out at 11.6 µM; in the experiment on HL-60(TB) leukemia it was 5.85 µM; with MDA-MB-435 it was 3.7 µM.

Consider `CCOC(=O)CC1C(COC(=O)NC)OC(n2cnc3c(NC(=O)Nc4ccccc4)ncnc32)C1O[Si](C)(C)C(C)(C)C` (stereo not given), for which the GI50 with A498 renal was 4.65 µM; with SK-MEL-28 melanoma, 7.77 µM; in the experiment on SF-268 CNS, 5.06 µM; in the experiment on HCT-15 colon it was 11.7 µM; with HOP-92 NSCLC it was 6.52 µM; in the experiment on MOLT-4 leukemia it was 1.99 µM. The GI50 is 1.39 µM with HL-60(TB) leukemia, 2.07 µM in the experiment with BT-549 breast and 3.26 µM in the experiment with MDA-MB-435. Moreover, the TGI was 21.4 µM with A498 renal; over 100 µM in the experiment with SK-MEL-28 melanoma; 33.8 µM with SF-268 CNS; over 100 µM with HCT-15 colon; 28.9 µM in the experiment with HOP-92 NSCLC; 5.74 µM in the experiment with MOLT-4 leukemia. For the same compound, the TGI with HL-60(TB) leukemia was 3.78 µM; in the experiment with BT-549 breast it was 6.71 µM; in the experiment on MDA-MB-435 it was over 100 µM.

For `O=C(OCc1ncc(-c2ccc(C(F)(F)F)cc2)c(NC2CCCCCC2)n1)c1c(F)c(F)c(F)c(F)c1F`, the GI50 with A498 renal is 18.7 µM; in the experiment on SK-MEL-28 melanoma, 11.7 µM; in the experiment on SF-268 CNS, 12.9 µM; in the experiment on HCT-15 colon it was 1.94 µM; in the experiment with SR leukemia, 3.13 µM; in the experiment on MOLT-4 leukemia, 3.42 µM. The GI50 in the experiment on HL-60(TB) leukemia was 5.53 µM; in the experiment with BT-549 breast it was 9 µM; with MDA-MB-435, 15.8 µM. Moreover, the total growth inhibition concentration (TGI) in the experiment with A498 renal is 33.2 µM; in the experiment on SK-MEL-28 melanoma, 24.7 µM; in the experiment on SF-268 CNS, 28 µM; in the experiment on HCT-15 colon, 4.78 µM; in the experiment with SR leukemia, 12.4 µM; in the experiment on MOLT-4 leukemia, 11.8 µM. For the same compound, the TGI was determined as 22 µM in the experiment on HL-60(TB) leukemia, 27.1 µM in the experiment with BT-549 breast and 32.6 µM in the experiment with MDA-MB-435.

On to `CCC(CNc1cc(OC)cc2cccnc12)NC1CCCCC1` (stereo not given), for which the GI50 in the experiment on A498 renal was 29.7 µM; in the experiment on SK-MEL-28 melanoma it was 25.6 µM; in the experiment with SF-268 CNS, 33.2 µM; with HCT-15 colon it was 34.9 µM; in the experiment with SR leukemia, 24.5 µM; with MOLT-4 leukemia it was 36 µM. The GI50 is 15.2 µM with HL-60(TB) leukemia and 32.6 µM with MDA-MB-435. Moreover, the TGI with A498 renal was over 100 µM; with SK-MEL-28 melanoma, 64.7 µM; in the experiment on SF-268 CNS it was over 100 µM; with HCT-15 colon, over 100 µM; with SR leukemia, 96.1 µM; in the experiment on MOLT-4 leukemia, over 100 µM. For the same compound, the TGI with HL-60(TB) leukemia is 41.7 µM; in the experiment on MDA-MB-435, over 100 µM.

Turning to `CCCCCCCCCCCCCCCCCC(=O)OCC(COC(=O)CCCN)OC(=O)CCCN` (stereo not given), the total growth inhibition concentration (TGI) is 34.4 µM in the experiment on SK-MEL-28 melanoma; 45.3 µM in the experiment on SF-268 CNS; 52.3 µM in the experiment on HCT-15 colon; 26.6 µM in the experiment on HOP-92 NSCLC; over 100 µM in the experiment with SR leukemia; 70.8 µM in the experiment with MOLT-4 leukemia. For the same compound, the TGI is 77 µM with HL-60(TB) leukemia and 33.2 µM in the experiment with MDA-MB-435.

As for `N#CCN/C=C\C(=O)c1ccc(Cl)cc1`, the GI50 in the experiment on A498 renal is 38.6 µM; in the experiment with SK-MEL-28 melanoma, 40.1 µM; in the experiment with SF-268 CNS it was 26.7 µM; in the experiment with SR leukemia it was 11.5 µM; in the experiment on MOLT-4 leukemia it was 21.3 µM; in the experiment with HL-60(TB) leukemia it was 14.2 µM. Moreover, the GI50 in the experiment with MDA-MB-435 is 30.3 µM. Also, the TGI with A498 renal is over 100 µM; with SK-MEL-28 melanoma it was over 100 µM; in the experiment with SF-268 CNS, over 100 µM; with SR leukemia it was 44.1 µM; with MOLT-4 leukemia, over 100 µM; in the experiment with HL-60(TB) leukemia, over 100 µM. The compound further displayed a TGI with MDA-MB-435 of over 100 µM.

`O=[N+]([O-])CCc1cccc([N+](=O)[O-])c1`: the TGI with A498 renal, in the experiment on SK-MEL-28 melanoma, in the experiment on SF-268 CNS, in the experiment on HCT-15 colon, in the experiment with HOP-92 NSCLC and with SR leukemia was over 100 µM each time. Further, the total growth inhibition concentration (TGI) in the experiment on MOLT-4 leukemia and with HL-60(TB) leukemia was over 100 µM each time.
